Laboratory results reported in US5670493A, “Aminophenylphosphonic acid compounds” (priority 1995, dated 1997).
Structures can show the parent of a compound that is named as a salt.

Legend:
[1] = tested on: chick embryo chorioallantoic membrane; test: Inhibition of the neovascularization of the chick embryo chorioallantoic membrane (CAM test); type: in vivo; settings: for inhibition at 125 µM: Gallus gallus, % of eggs with avascular zone > 4 mm, 48 hours; for CAM test: collective results table, with spread, % of eggs displaying an avascular zone
Method: This test is carried out with chick embryos as described previously (Crum R., Szabo S. and Folkman J., Science, (1985), 230, 1375-1378). Fertilized eggs (D0) are incubated at 37° C. An air pocket is created by withdrawing 1 ml of albumin (D3), and a window is then cut in the shell (D4) and the vitelline membrane is removed to expose the chorioallantoic membrane (CAM).
The test products are solubilized in ethanol and applied to methylcellulose disks, which are dried and applied to CAM on day 6. Between 8 and 16 eggs are used per group. The zone located around the disk is then examined 48 hours later. Eggs displaying an avascular zone greater than 4 mm in diameter are counted, and the results are expressed as a percentage of eggs displaying an avascular zone. […]

[2] = tested on: M 5076 sarcoma; test: Inhibition of tumor growth in vivo in M 5076 sarcoma in mice; settings: for M 5076 sarcoma % ITG (inhibition of tumor growth): 13th day; for correlation between antitumor activity and inhibition of angiogenesis: M 5076 antitumor activity versus CAM test, in words
Method: The malignant cells (10^6 /mouse) are inoculated subcutaneously on day 0 to form a tumor nodule. The mice are then distributed at random in treated/control groups (12 mice/group). […] The inhibition of tumor growth (ITG) is evaluated on the 13th day according to the following calculation: [formula]

[3] = Cytotoxicity, PAEC (microculture tetrazolium assay); type: cell-based; settings: pig, aorta endothelial cells paec, 3 days, read-out: Cytotoxicity PAEC IC50
Method: (§1) Three cell lines were used:
(§2) 1 primary culture of pig aorta endothelial cells, PAEC.
(§3) The cells are cultured in complete RPMI 1640 medium containing 10% of fetal calf serum, 2 mM glutamine, 50 units/ml of penicillin, 50 μg/ml of streptomycin and 10 mM HEPES (pH=7.4).
(§4) The cells are distributed in microplates and exposed to the compounds of the invention. The cells are then incubated for two days (L1210), 3 days (PAEC) and 4 days (A431). The number of viable cells is then quantified by a colorimetric assay, the microculture tetrazolium assay (Carmichael J., DeGraff W. G., Gazdar A. F., Minna J. D. and Mitchell J. R., Evaluation of a tetrazolium-based semiautomated colorimetric assay: assessment of chemosensitivity testing, Cancer Res., 47, 936-942, (1987)).

[4] = Cytotoxicity, L1210 (microculture tetrazolium assay); type: cell-based, murine; settings: mouse, l1210 cells; L1210, 2 days; read-out: Cytotoxicity L 1210 IC50
Method: as §1
(§5) 1 murine leukemia, L1210,
as §3, §4

[5] = tested on: L1210, A431 and PAEC cells; test: Cytotoxicity (microculture tetrazolium assay), three cell lines; type: cell-based, murine (L1210), human (A431), pig (PAEC); settings: in words
Method: as §1, §5
1 human epidermoid carcinoma, A431,
as §2, §3, §4

[6] = tested on: murine leukemia, L1210; test: Cytotoxicity, L1210 (microculture tetrazolium assay); type: cell-based
Method: as §1, §5, §3, §4

O=C(CCCCCCCCC(=O)Nc1ccc(P(=O)(O)O)cc1)Nc1ccc(P(=O)(O)O)cc1 [Example 1, 4,4'-[1,8-Octanediylbis(carbonylamino)]bis(phenylphosphonic acid)tetrasodium salt]
inhibition at 125 µM [1]: 64%
CAM test [1]: 64 ± 6%
M 5076 sarcoma % ITG (inhibition of tumor growth) ([2]; 60 mg/kg, intraperitoneal day 1 to day 12): 61%
correlation between antitumor activity and inhibition of angiogenesis [2]: very good correlation
CC50 at 72 h [3]: > 500 µM
CC50 at 48 h [4]: > 500 µM
cytotoxic effect [5]: without a cytotoxic effect

O=C(CCCCCCCCCCC(=O)Nc1ccc(P(=O)(O)O)cc1)Nc1ccc(P(=O)(O)O)cc1 [Example 5, 4,4'-[1,10-Decanediylbis(carbonylamino)]bis(phenylphosphonic acid)tetrasodium salt]
inhibition at 125 µM [1]: 68%

O=C(CCCCCCCCCCCCC(=O)Nc1ccc(P(=O)(O)O)cc1)Nc1ccc(P(=O)(O)O)cc1 [Example 7, 4,4'-[1,12-Dodecanediylbis(carbonylamino)]bis(phenylphosphonic acid)]
inhibition at 125 µM [1]: 56%

O=C(CCCCCCCCCCCCCC(=O)Nc1ccc(P(=O)(O)O)cc1)Nc1ccc(P(=O)(O)O)cc1 [Example 8, 4,4'-[1,13-Tridecanediylbis(carbonylamino)]bis(phenylphosphonic acid)]
inhibition at 125 µM [1]: 90%

O=C(Nc1ccc(P(=O)(O)O)cc1)c1ccc(Cc2ccc(C(=O)Nc3ccc(P(=O)(O)O)cc3)cc2)cc1 [Example 11, 4,4'-[4,4'-Diphenylmethanediylbis(carbonylamino)]bis(phenylphosphonic acid)tetra-sodium salt]
inhibition at 125 µM [1]: 65%
CAM test [1]: 65 ± 8%
M 5076 sarcoma % ITG (inhibition of tumor growth) ([2]; 30 mg/kg, intraperitoneal day 1 to day 12): 60%
correlation between antitumor activity and inhibition of angiogenesis [2]: very good correlation
CC50 at 72 h [3]: 429 µM
CC50 at 48 h [4]: > 500 µM
cytotoxic effect [5]: without a cytotoxic effect

O=C(C=Cc1ccc(C=CC(=O)Nc2ccc(P(=O)(O)O)cc2)cc1)Nc1ccc(P(=O)(O)O)cc1 [Example 24, 4,4'-[1,4-Divinylenebenzenediylbis(carbonylamino)]bis(phenylphosphonic acid)]
inhibition at 125 µM [1]: 82%

O=C(CC[C@H]1CC[C@H](CCC(=O)Nc2ccc(P(=O)(O)O)cc2)CC1)Nc1ccc(P(=O)(O)O)cc1 [Example 32, 4,4'-[trans-1,4-Diethylenecyclohexanediylbis(carbonylamino)]bis(phenylphosphonic acid)]
inhibition at 125 µM [1]: 80%

O=C(C=Cc1ccc(C=CC(=O)Nc2ccc(P(=O)(O)O)cc2)s1)Nc1ccc(P(=O)(O)O)cc1 [Example 39, 4,4'-[2,5-Divinylenethiophenediylbis(carbonylamino)]bis(phenylphosphonic acid)]
inhibition at 125 µM [1]: 75%

O=C(C=Cc1ccc2cc(C=CC(=O)Nc3ccc(P(=O)(O)O)cc3)ccc2c1)Nc1ccc(P(=O)(O)O)cc1 [Example 40, 4,4'-[2,6-Divinylenenaphthalenediylbis(carbonylamino)]bis(phenylphosphonic acid)]
inhibition at 125 µM [1]: 68%

O=C(C=Cc1ccc(C=CC(=O)Nc2ccc(P(=O)(O)O)cc2)c2ccccc12)Nc1ccc(P(=O)(O)O)cc1 [Example 44, 4,4'-[1,4-Divinylenenaphthalenediylbis(carbonylamino)]bis(phenylphosphonic acid)]
inhibition at 125 µM [1]: 80%

O=C(C=C[C@H]1CC[C@H](C=CC(=O)Nc2ccc(P(=O)(O)O)cc2)CC1)Nc1ccc(P(=O)(O)O)cc1 [Example 45, 4,4'-[1,4-trans-Divinylenecyclohexanediylbis(carbonylamino)]bis(phenylphosphonic acid)]
inhibition at 125 µM [1]: 89%

O=C(/C=C/C=C/c1ccc(/C=C/C=C/C(=O)Nc2ccc(P(=O)(O)O)cc2)cc1)Nc1ccc(P(=O)(O)O)cc1 [Example 47, 4,4'-[1,4-Di(1,3-trans-trans-butadienylene)benzenediylbis(carbonylamino)]bis(phenylphosphonic acid)]
inhibition at 125 µM [1]: 93%

Cc1ccc(C(=O)Nc2ccc(S(=O)(=O)O)c3cc(S(=O)(=O)O)cc(S(=O)(=O)O)c23)cc1NC(=O)c1cccc(NC(=O)Nc2cccc(C(=O)Nc3cc(C(=O)Nc4ccc(S(=O)(=O)O)c5cc(S(=O)(=O)O)cc(S(=O)(=O)O)c45)ccc3C)c2)c1 [Suramin, suramin, reference compound]
inhibition at 125 µM [1]: 20%
CAM test [1]: 20 ± 3%
inhibition of neovascularization (CAM) ([1]; in words): weak inhibition of neovascularization
M 5076 sarcoma % ITG (inhibition of tumor growth) ([2]; 100 mg/kg, d 1,4,7 i.v.): 67%
CC50 at 72 h [3]: 202 ± 10 µM
CC50 at 48 h [4]: 131 ± 21 µM
cytotoxicity on the L 1210 leukemic line [6]: relative cytotoxicity
